# According to publication doi:10.1101/2022.10.27.513961v1 (bioRxiv, 2022):
# Tests used:
# Assay type in all cases: cell-based
# WM164 cells [1] = experiment: Cytotoxicity, resazurin assay; settings: Homo sapiens, WM164, Parental WM164 cells
# HT144 cells [2] = experiment: Cytotoxicity, resazurin assay; settings: for IC50: Homo sapiens
# WM164 cells [3] = experiment: Co-treatment of dabrafenib with peptide, resazurin assay; settings: drug-naïve WM164, drug (50 nM) or peptide (at IC50) added alone, 72 h
# WM164 cells [4] = experiment: Lipidome analysis, shotgun tandem MS of lipid extracts
# HT144 cells [5] = experiment: as above
# WM164 cells [6] = experiment: Cell surface charge, zeta potential; settings: WM164 PDRCs (105 days with dabrafenib), mean ± SEM, n=3
# HT144 cells [7] = experiment: Cell surface charge, zeta potential; settings: mean ± SEM, n=3
# WM164 cells [8] = experiment: Microscopy during long-term treatment; settings: WM164, 100 nM dabrafenib
# HT144 cells [9] = experiment: Microscopy during long-term treatment; settings: HT144, 100 nM dabrafenib
# [10] = WM164, 15-30 days of dabrafenib
# [11] = WM164, dabrafenib 30 days vs untreated
# [12] = HT144, dabrafenib 30 days vs untreated
smiles,measurement,setting,value
"CC(C)(C)c1nc(-c2cccc(NS(=O)(=O)c3c(F)cccc3F)c2F)c(-c2ccnc(N)n2)s1 [dabrafenib, reference compound]",IC50,WM164 cells [1],44 nM
same,IC50,"HT144 cells [2]; HT-144, 72 h, HT144 PDRC (100 nM), resazurin three days after drug",> 1000 nM
same,IC50,"HT144 cells [2]; HT-144, Parental HT144 cells",22 nM
same,toxicity,"HT144 cells [2]; PDR HT144 cells, at 1µM",~10%
same,cell death,WM164 cells [3],~ 50%
same,SM proportion,"WM164 cells [4]; WM164, 100 nM dabrafenib 30 days (untreated 3)",11 mol%
same,fold increase of PI 38:4,WM164 cells [4]; [10],3 fold
same,fold increase of SM 36:1,WM164 cells [4]; [10],3 fold
same,SM 36:1 abundance,"WM164 cells [4]; WM164, 15-30 days of dabrafenib (before 8)",26 mol%
same,PI 38:4 abundance,"WM164 cells [4]; WM164, 15-30 days of dabrafenib (before 18)",55 mol%
same,negatively charged lipids (PS+PI) proportion,"WM164 cells [4]; WM164, dabrafenib 30 days (untreated 19)",23 mol%
same,zwitterionic PE and PC proportion,"WM164 cells [4]; WM164, dabrafenib 30 days (untreated 78)",66 mol%
same,fold decrease in PE and PC,WM164 cells [4]; [11],0.8 fold
same,fold increase in PS+PI,WM164 cells [4]; [11],1.2 fold
same,fold increase in SM,WM164 cells [4]; [11],3.7 fold
same,SM proportion,"HT144 cells [5]; HT144, dabrafenib 30 days (untreated 5)",9 mol%
same,PE proportion,"HT144 cells [5]; HT144, dabrafenib 30 days (untreated 15)",20 mol%
same,PC proportion,"HT144 cells [5]; HT144, dabrafenib 30 days (untreated 59)",51 mol%
same,fold decrease in PC,HT144 cells [5]; [12],0.9 fold
same,fold increase in PE,HT144 cells [5]; [12],1.3 fold
same,fold increase in SM,HT144 cells [5]; [12],1.8 fold
same,"surface charge, zeta potential",WM164 cells [6],−20.18 ± 0.95 mV
same,"surface charge, zeta potential",HT144 cells [7]; HT144 DTPs (30 days with dabrafenib),−15.94 ± 0.59 mV
same,"surface charge, zeta potential",HT144 cells [7]; HT144 PDRCs (105 days with dabrafenib),−17.7 ± 0.30 mV
same,time to death of drug-naïve cells,WM164 cells [8],≤ 48 h
same,time to death of drug-naïve cells,HT144 cells [9],≤ 48 h
